Reference: patent publication US20250081967A1, “PESTICIDALLY ACTIVE HETEROCYCLIC DERIVATIVES WITH SULFOXIMINE CONTAINING SUBSTITUENTS” (SYNGENTA CROP PROTECTION AG, priority 2021, published 2025)

Legend:
Format in all cases: in vivo
Myzus persicae [1] = test: Activity against Myzus persicae (green peach aphid), feeding/contact activity, sunflower leaf discs; conditions: for mortality at 200 ppm: 144 h, application rate 200 ppm, feeding/contact, 6 days after infestation
Procedure: Example B4: Activity Against Myzus persicae (Green Peach Aphid) Feeding/Contact Activity
Sunflower leaf discs were placed on agar in a 24-well microtiter plate and sprayed with aqueous test solutions prepared from 10′000 ppm DMSO stock solutions. After drying, the leaf discs were infested with an aphid population of mixed ages. The samples were assessed for mortality 6 days after infestation.

Myzus persicae [2] = test: Activity against Myzus persicae (green peach aphid), systemic activity, pea seedlings; conditions: Myzus persicae
Procedure: Example B5: Activity Against Myzus persicae (Green Peach Aphid) Systemic Activity
Roots of pea seedlings infested with an aphid population of mixed ages were placed directly in the aqueous test solutions prepared from 10′000 DMSO stock solutions. The samples were assessed for mortality 6 days after placing seedlings in test solutions.

Diabrotica balteata = test: Activity against Diabrotica balteata (corn root worm), maize sprouts; conditions: for mortality at 50 ppm: concentration 50 ppm; for percent effect (mortality or growth inhibition) at 200 ppm: 96 h, application rate 200 ppm, L2 larvae, 4 days after infestation, read-out: effect in at least one of the two categories (mortality or growth inhibition); for mortality at 3.125 ppm: concentration 3.125 ppm
Procedure: Example B3: Activity Against Diabrotica Balteata (Corn Root Worm)
Maize sprouts placed onto an agar layer in 24-well microtiter plates were treated with aqueous test solutions prepared from 10′000 ppm DMSO stock solutions by spraying. After drying, the plates were infested with L2 larvae (6 to 10 per well). The samples were assessed for mortality and growth inhibition in comparison to untreated samples 4 days after infestation.

Bemisia tabaci = test: Activity against Bemisia tabaci (cotton white fly), cotton leaf discs; conditions: foliar; for mortality at 200 ppm: 144 h, application rate 200 ppm, adult white flies, 6 days after incubation; for mortality at 12.5 ppm: concentration 12.5 ppm
Procedure: Example B6: Activity Against Bemisia tabaci (Cotton White Fly)
Cotton leaf discs were placed on agar in 24-well microtiter plates and sprayed with aqueous test solutions prepared from 10′000 ppm DMSO stock solutions. After drying the leaf discs were infested with adult white flies. The samples were checked for mortality 6 days after incubation.

Plutella xylostella = test: Activity against Plutella xylostella (diamond back moth), artificial diet, eggs; conditions: 192 h, application rate 200 ppm, 8 days after infestation, read-out: effect in at least one of the two categories (mortality or growth inhibition)
Procedure: Example B9: Activity Against Plutella xylostella (Diamond Back Moth)
24-well microtiter plates with artificial diet were treated with aqueous test solutions prepared from 10′000 ppm DMSO stock solutions by pipetting. After drying, Plutella eggs were pipetted through a plastic stencil onto a gel blotting paper and the plate was closed with it. The samples were assessed for mortality and growth inhibition in comparison to untreated samples 8 days after infestation.

Spodoptera littoralis = test: Activity against Spodoptera littoralis (Egyptian cotton leaf worm), cotton leaf discs; conditions: foliar, 72 h, application rate 200 ppm, L1 larvae, 3 days after infestation, read-out: control (mortality, anti-feeding effect or growth inhibition)
Procedure: Example B1: Activity Against Spodoptera littoralis (Egyptian Cotton Leaf Worm)
Cotton leaf discs were placed onto agar in 24-well microtiter plates and sprayed with aqueous test solutions prepared from 10′000 ppm DMSO stock solutions. After drying the leaf discs were infested with five L1 larvae. The samples were assessed for mortality, anti-feeding effect, and growth inhibition in comparison to untreated samples 3 days after infestation. Control of Spodoptera littoralis by a test sample is given when at least one of the categories mortality, anti-feedant effect, and growth inhibition is higher than the untreated sample.

[3] = Myzus persicae (systemic), concentration 24 ppm
[4] = Myzus persicae, foliar, Myzus persicae (feeding/contact), concentration 3.125 ppm
[5] = 144 h, test rate 24 ppm, systemic, 6 days after placing seedlings in test solutions

CCS(=O)(=O)c1cc(OC(C)(C)C#N)cnc1-c1nc2cc(C(F)(F)F)n(C3CC3)c(=O)c2n1C [Described in WO21/219810 as compound P7, reference compound]
mortality at 50 ppm (Myzus persicae [1]; Myzus persicae, foliar, Myzus persicae (contact), concentration 50 ppm): 0%

CCS(=O)(=O)c1cc(OC(C)(C)C#N)c(C)nc1-c1nc2cc(C(F)(F)F)cnc2n1C [Described in WO21/219810 as compound P4, reference compound]
mortality at 24 ppm (Myzus persicae [2]; [3]): 0%

CCS(=N)(=O)c1cc(OC(C)(C)C#N)cnc1-c1nc2cc(C(F)(F)F)cnc2n1C (racemic) [Described in WO20/084075 as compound P3, reference compound]
mortality at 50 ppm (Diabrotica balteata): 80%

CCS(=N)(=O)c1cc(OC(C)(C)C#N)cnc1-c1nc2cc(C(F)(F)F)ncc2n1C (racemic) [Described in WO20/084075 as compound P1, reference compound]
mortality at 50 ppm (Diabrotica balteata): 0%

CCS(=N)(=O)c1cc(OC(C)(C)C#N)cnc1-c1cn2cnc(C(F)(F)F)cc2n1 (single isomer, unassigned) [Compound P11-B, 2-[[5-(ethylsulfonimidoyl)-6-[7-(trifluoromethyl)imidazo[1,2-c]pyrimidin-2-yl]-3-pyridyl]oxy]-2-methyl-propanenitrile]
mortality at 200 ppm (Bemisia tabaci): ≥ 80%

CCS(=N)(=O)c1cc(C2(C#N)CC2)ccc1-c1nc2cc(C(F)(F)F)ncc2n1C (racemic) [Described in WO19/234158 as compound P13, reference compound]
mortality at 12.5 ppm (Bemisia tabaci): 0%
mortality at 50 ppm (Diabrotica balteata): 0%

CCS(=N)(=O)c1cc(C2(C#N)CC2)cnc1-c1nc2cc(C(F)(F)F)nnc2n1C (single isomer, unassigned) [Compound P2-B, 1-[5-(ethylsulfonimidoyl)-6-[7-methyl-3-(trifluoromethyl)imidazo[4,5-c]pyridazin-6-yl]-3-pyridyl]cyclopropanecarbonitrile]
Mortality (%) (Myzus persicae [1]; Myzus persicae (feeding/contact), concentration 3.125 ppm): 50%

CCS(=N)(=O)c1cc(C2(C#N)CC2)cnc1-c1nc2cc(C(F)(F)F)ncc2n1C (racemic) [reference compound]
mortality at 12.5 ppm (Bemisia tabaci): 50%

CCS(=N)(=O)c1cc(OC(C)(C)C#N)cnc1-c1nc2cc(C(F)(F)F)nnc2n1C (racemic) [Described in WO20/084075 as compound P2, reference compound]
mortality at 12.5 ppm (Diabrotica balteata; concentration 12.5 ppm): 0%

CCS(=O)(=O)c1cc(OC(C)(C)C#N)cnc1-c1nc2cc(C(F)(F)F)ncc2n1C [Described in WO18/197315 as compound P18, reference compound]
mortality at 12.5 ppm (Myzus persicae [1]; Myzus persicae, foliar, Myzus persicae (feeding/contact), concentration 12.5 ppm): 65%

CCS(=N)(=O)c1cc(C2(C#N)CC2)cnc1-c1nc2cc(C(F)(F)F)cnc2n1C (racemic) [Described in WO19/234158 as compound P6, reference compound]
mortality at 12.5 ppm (Bemisia tabaci): 50%

CCn1c(C(F)(F)F)cc2nc(-c3ncc(C4(C#N)CC4)cc3S(=N)(=O)CC)n(C)c2c1=O (racemic) [Described in WO19/234158 as compound P14, reference compound]
mortality at 50 ppm (Diabrotica balteata): 0%

CCS(=N)(=O)c1cc(OC(C)(C)C#N)cnc1-c1cn2cnc(SC(F)(F)F)cc2n1 (racemic) [Described in WO20/084075 as compound P11, reference compound]
mortality at 50 ppm (Bemisia tabaci; concentration 50 ppm): 50%

CCS(=N)(=O)c1cc(C2(C#N)CC2)ccc1-c1nc2cc(C(F)(F)F)cnc2n1C (racemic) [Described in WO19/234158 as compound P15, reference compound]
mortality at 50 ppm (Diabrotica balteata): 0%

CCS(=O)(=O)c1cc(OC(C)(C)C#N)cnc1-c1cn2cnc(C(F)(F)F)cc2n1 [Described in WO18/206348 as compound P13, reference compound]
mortality at 24 ppm (Myzus persicae [2]; [3]): 0%

CCS(=O)(=O)c1cc(OC(C)(C)C#N)cnc1-c1nc2cc(C(F)(F)F)cnc2n1C [Described in WO21/219810 as compound P3, reference compound]
mortality at 24 ppm (Myzus persicae [2]; [3]): 50%

CCS(=O)(=O)c1cc(C2(C#N)CC2)cnc1-c1nc2cc(C(F)(F)F)nnc2n1C [Described in WO18/108726 as compound H-1, reference compound]
mortality at 3.125 ppm (Myzus persicae [1]; [4]): 80%

CCS(=N)(=O)c1cc(OC(C)(C)C#N)cnc1-c1nc2cc(C(F)(F)F)nnc2n1C (single isomer, unassigned) [Compound P15-B, 2-[[5-(ethylsulfonimidoyl)-6-[7-methyl-3-(trifluoromethyl)imidazo[4,5-c]pyridazin-6-yl]-3-pyridyl]oxy]-2-methyl-propanenitrile]
Mortality (%) (Diabrotica balteata; concentration 12.5 ppm): 100%

CCS(=O)(=O)c1cc(C2(C#N)CC2)cnc1-c1nc2cc(C(F)(F)F)ncc2n1C [reference compound]
mortality at 0.781 ppm (Myzus persicae [1]; Myzus persicae, foliar, Myzus persicae (feeding/contact), concentration 0.781 ppm): 0%

CCS(=N)(=O)c1cc(C(C)(C)C#N)cnc1-c1nc2cc(C(F)(F)F)ncc2n1C (single isomer, unassigned) [Compound P4-B, 2-[5-(ethylsulfonimidoyl)-6-[3-methyl-6-(trifluoromethyl)imidazo[4,5-c]pyridin-2-yl]-3-pyridyl]-2-methyl-propanenitrile]
percent effect (mortality or growth inhibition) at 200 ppm (Diabrotica balteata): ≥ 80%
percent effect (mortality or growth inhibition) at 200 ppm (Plutella xylostella): ≥ 80%

CCS(=O)(=O)c1cc(C2(C#N)CC2)cnc1-c1nc2cc(C(F)(F)F)cnc2n1C [reference compound]
mortality at 3.125 ppm (Myzus persicae [1]; [4]): 80%

CCS(=O)(=O)c1cc(OC(C)(C)C#N)c(C)nc1-c1nc2cc(C(F)(F)F)cnc2n1C (racemic) [Described in WO20/084075 as compound P4, reference compound]
mortality at 3.125 ppm (Diabrotica balteata): 0%

CCS(=N)(=O)c1cc(OC(C)(C)C#N)c(C)nc1-c1nc2cc(C(F)(F)F)cnc2n1C (single isomer, unassigned) [Compound P5-A, 2-[[5-(ethylsulfonimidoyl)-2-methyl-6-[3-methyl-6-(trifluoromethyl)imidazo[4,5-b]pyridin-2-yl]-3-pyridyl]oxy]-2-methyl-propanenitrile]
mortality at 200 ppm (Myzus persicae [1]; Myzus persicae, foliar): ≥ 80%
mortality at 200 ppm (Bemisia tabaci): ≥ 80%
percent effect (mortality or growth inhibition) at 200 ppm (Diabrotica balteata): ≥ 80%
mortality at 3.125 ppm (Diabrotica balteata): 80%
percent control (mortality, anti-feedant effect or growth inhibition) at 200 ppm (Spodoptera littoralis): ≥ 80%
mortality at 24 ppm (Myzus persicae [2]; [5]): ≥ 80%
mortality at 24 ppm (Myzus persicae [2]; [3]): 100%

CCS(=O)(=O)c1cc(C2(C#N)CC2)ccc1-c1nc2cc(C(F)(F)F)cnc2n1C [reference compound]
mortality at 6 ppm (Myzus persicae [2]; Myzus persicae (systemic), concentration 6 ppm): 0%

CCS(=N)(=O)c1cc(C(C)(C)C#N)cnc1-c1nc2cc(C(F)(F)F)ncc2n1C (racemic) [Compound P4, 2-[5-(ethylsulfonimidoyl)-6-[3-methyl-6-(trifluoromethyl)imidazo[4,5-c]pyridin-2-yl]-3-pyridyl]-2-methyl-propanenitrile]
mortality at 200 ppm (Myzus persicae [1]; Myzus persicae, foliar): ≥ 80%
mortality at 200 ppm (Bemisia tabaci): ≥ 80%
mortality at 24 ppm (Myzus persicae [2]; [5]): ≥ 80%

CCS(=N)(=O)c1cc(OC(C)(C)C#N)cnc1-c1cn2ccc(C(F)(F)F)cc2n1 (single isomer, unassigned) [Compound P3-A, 2-[[5-(ethylsulfonimidoyl)-6-[7-(trifluoromethyl)imidazo[1,2-a]pyridin-2-yl]-3-pyridyl]oxy]-2-methyl-propanenitrile]
mortality at 200 ppm (Myzus persicae [1]; Myzus persicae, foliar): ≥ 80%
percent effect (mortality or growth inhibition) at 200 ppm (Diabrotica balteata): ≥ 80%
percent control (mortality, anti-feedant effect or growth inhibition) at 200 ppm (Spodoptera littoralis): ≥ 80%

CCS(=N)(=O)c1cc(OC(C)(C)C#N)cnc1-c1cn2ccc(C(F)(F)F)cc2n1 (single isomer, unassigned) [Compound P3-B, 2-[[5-(ethylsulfonimidoyl)-6-[7-(trifluoromethyl)imidazo[1,2-a]pyridin-2-yl]-3-pyridyl]oxy]-2-methyl-propanenitrile]
percent effect (mortality or growth inhibition) at 200 ppm (Plutella xylostella): ≥ 80%
mortality at 24 ppm (Myzus persicae [2]; [5]): ≥ 80%

CCS(=N)(=O)c1cc(C(C)(C)C#N)cnc1-c1nc2cc(C(F)(F)F)ncc2n1C (single isomer, unassigned) [Compound P4-A, 2-[5-(ethylsulfonimidoyl)-6-[3-methyl-6-(trifluoromethyl)imidazo[4,5-c]pyridin-2-yl]-3-pyridyl]-2-methyl-propanenitrile]
mortality at 200 ppm (Myzus persicae [1]; Myzus persicae, foliar): ≥ 80%
mortality at 200 ppm (Bemisia tabaci): ≥ 80%
mortality at 24 ppm (Myzus persicae [2]; [5]): ≥ 80%
